# Reference: PMC8117003, “Pharmacokinetic Profile and Oral Bioavailability of Diosgenin, Charantin, and Hydroxychalcone From a Polyherbal Formulation” (Frontiers in Pharmacology, 2021)
# Several values for one entry are separate records, joined by “and”; a condition that tells them apart may be missing. Equal entries are not always repeated. Where two headings read alike, the source gives them in different places.
# Key:
# [1] = Pharmacokinetics and absolute bioavailability of pure marker compounds after single oral and i.v. dose; type: in vivo, male Wistar rats; details: for MRT: MRT (mean residence time); for half-life: t 1/2 (plasma half-life); for k el: plasma, read-out: Kel (elimination rate constant) (converted); for k el / Kel (elimination rate constant): rat plasma
# Procedure: Plasma concentrations of active marker compounds were determined using validated high-performance thin layer chromatography (HPTLC) with the UV detection method.
# The plasma samples (150 µl) were deproteinized by adding mixture of methanol: dichloromethane (1:1), followed by vortex mixing at 3000 rpm for 5 min. The supernatant was separated and further extracted with about 1.5 ml of ethyl acetate by mixing on vortex mixer at 3000 rpm for 10 min. The ethyl acetate layer was then collected and evaporated to dryness, followed by reconstitution with mobile phase (200 µl) containing chloroform: glacial acetic acid: methanol: water ((4.0:3.0:2.0:1.0) v/v and 100 µl was applied on a HPTLC plate. The optimized HPTLC conditions for development and quantification of the constituents is given in Table 2.
# Absolute bioavailabilities of marker compounds viz. diosgenin, charantin, and hydroxychalcone were determined in male Wistar rats. The animals weighing 300–350 gm were fasted overnight before the dosing with free access to drinking water throughout the experimental period. For the purpose of dosing all the three marker compounds viz, diosgenin, charantin, and hydroxychalcone were suspended in water to make the dose of 15 mg/kg per oral to be administrated to the groups of […]. The animals were divided into two groups with six animals in each group. The first group received the marker compounds in the dose of 1.5 mg/kg i.v. via lateral tail vein, while the second group received the marker compounds in the dose of 15 mg/kg p.o. The rats were anesthetized using ether and blood samples were collected through puncturing the retro-orbital plexus at 0, 0.17, 0.5, 1, 2, 4, 6, 12, and 24 h time points. Blood samples were centrifuged to separate plasma and stored at −20°C until bioanalysis.
# Non-compartmental analysis of data was performed using statistical moment theory. The peak plasma concentration (Cmax) and the corresponding time (Tmax) were directly obtained from the raw data.
# The area under the plasma concentration vs. time curve upto the last quantifiable point, AUC(0-t), was calculated by the linear and log-linear trapezoidal rule summation: AUC(0−t) =∑C0+Ct/2× Tt− T0.
# The AUC(0-t) was extrapolated to infinity (i.e., […]) by adding the quotient of Clast/Kel, AUC(t−∞) = Clast/Kel,
# Kel was calculated by the linear regression of the log-transformed concentrations of the last three data points in the terminal phase. Kel = −slope × 2.303.
# The half-life of the elimination phase was obtained from using the relationship, t 1/2 = 0.693/Kel.
# Clearance was calculated using the relationship Cl = Vd × Kel
# Apparent volume of distribution was calculated using relationship Vd = Dose Administered/Plasma concentration.
# Absolute oral bioavailability (F) was calculated using relationship F = {[AUC (oral)/AUC (iv)] × [Dose (iv)/Dose (oral)]} × 100.
# [2] = Stability of marker compounds (bioanalytical HPTLC, quality control samples); type: in vitro ADME, rat; details: for Freeze thaw stability / Short-term room temperature stability: rat plasma
# Procedure: Sample stability was determined by analyzing samples for quality control for analyte’s stock stability in solvent, refrigerator stock solution stability, freeze and thaw stability, and bench top stability. The stability experiments were carried out to evaluate the degradations of the marker compounds under different experimental conditions. […] As per the acceptance criteria, % ratio (Stability/comparison) should be within 85–115%; from the above results, it was concluded that all the marker compounds were within the acceptance criteria for stability study Table 7.
# [3] = male, Wistar, rat, in vivo, iv, 1.5 mg/kg
# [4] = male, Wistar, rat, in vivo, po, 15 mg/kg
# [5] = pure marker, oral single dose 15 mg/kg, 15 mg/kg
compound,measurement,setting,value
C[C@@H]1CC[C@@]2(OC1)O[C@H]1C[C@H]3[C@@H]4CC=C5C[C@@H](O)CC[C@]5(C)[C@H]4CC[C@]3(C)[C@H]1[C@@H]2C [Diosgenin],bioavailability,"[1]; male, Wistar, rat, in vivo",9 ± 0.2%
same,AUC 0-∞,[1]; [3],4.9575 ± 0.44 µg·h/mL
same,Cl (drug clearance),[1]; [3],0.2221 ± 0.05 mL/h/kg
same,Cmax,[1]; [3],0.6122 ± 0.1 µg/mL
same,MRT (mean residence time),[1]; [3],9.9420 ± 0.90 h
same,Vd (apparent volume of distribution),[1]; [3],0.0025397 ± 0.00057 L/kg
same,t 1/2 (plasma half-life),[1]; [3],7.9300 ± 0.37 h
same,AUC(0-inf),[1]; [3],4.47 µg·h/mL
same,clearance,"[1]; male, Wistar, rat, in vivo, iv, 1.5 mg/kg, Cl (drug clearance)",220 mL/h/kg
same,Cmax,"[1]; male, Wistar, rat, in vivo, iv, 1.5 mg/kg, Cmax",0.57 µg/mL
same,MRT,[1]; [3],8.2 h
same,Vd,"[1]; male, Wistar, rat, in vivo, iv, 1.5 mg/kg, Vd (apparent volume of distribution)",2.5 L/kg
same,half-life,[1]; [3],7.56 h
same,AUC 0-∞,[1]; [4],4.4753 ± 0.06 µg·h/mL
same,Cl (drug clearance),[1]; [4],2.5143 ± 0.09 mL/h/kg
same,Cmax,[1]; [4],0.5773 ± 0.012 µg/mL
same,MRT (mean residence time),[1]; [4],8.2008 ± 0.15 h
same,Tmax,[1]; [4],1 h
same,t 1/2 (plasma half-life),[1]; [4],7.5638 ± 0.21 h
same,AUC(0-inf),[1]; [4],4.95 µg·h/mL
same,Cmax,"[1]; male, Wistar, rat, in vivo, po, 15 mg/kg, Cmax",0.61 µg/mL
same,MRT,[1]; [4],9.94 h
same,half-life,[1]; [4],7.93 h
same,k el,"[1]; male, Wistar, rat, iv, 1.5 mg/kg, pure marker, IV single dose 1.5 mg/kg",2.5e-05 s⁻¹
same,k el,"[1]; male, Wistar, rat, po, 15 mg/kg, pure marker, oral single dose 15 mg/kg",2.22e-05 s⁻¹
same,AUMC 0-∞,"[1]; pure marker, IV single dose 1.5 mg/kg",17.3937 ± 2.10 µg.h^2/ml
same,Kel (elimination rate constant),"[1]; pure marker, IV single dose 1.5 mg/kg, 1.5 mg/kg",0.0875 ± 0.004 h⁻¹
same,AUMC 0-∞,"[1]; pure marker, oral single dose 15 mg/kg",36.700 ± 0.77 µg.h^2/ml
same,Kel (elimination rate constant),[1]; [5],0.0917 ± 0.003 h⁻¹
same,Ka (rate of absorption),[1]; [5],1.1 h⁻¹ and 1.1 ± 0.10 h⁻¹
same,Refrigerator standard stock solution stability,[2]; 0.4 µg/ml,91.73 ± 0.46%
same,Room temperature standard stock solution stability,[2]; 0.4 µg/ml,85.18 ± 0.45%
same,Refrigerator standard stock solution stability,[2]; 0.8 µg/ml,90.24 ± 1.13%
same,Room temperature standard stock solution stability,[2]; 0.8 µg/ml,84.86 ± 1.23%
same,Refrigerator standard stock solution stability,[2]; 1.2 µg/ml,89.56 ± 2.21%
same,Room temperature standard stock solution stability,[2]; 1.2 µg/ml,85.03 ± 2.16%
same,Degradation in plasma,"[2]; plasma, under different experimental conditions",no significant degradation
same,Freeze thaw stability,[2]; 0.4 µg/ml,87.06%
same,Short-term room temperature stability,[2]; 0.4 µg/ml,98.64%
same,Freeze thaw stability,[2]; 0.8 µg/ml,94.52%
same,Short-term room temperature stability,[2]; 0.8 µg/ml,97.90%
same,Freeze thaw stability,[2]; 1.2 µg/ml,97.86%
same,Short-term room temperature stability,[2]; 1.2 µg/ml,98.25%
Charantin,Absolute bioavailability,"[1]; rat, in vivo",8.18 ± 0.36%
same,AUMC 0-∞,"[1]; rat, in vivo, iv, 1.5 mg/kg",182.9438 ± 1.74 µg.h^2/ml
same,AUMC 0-∞,"[1]; rat, in vivo, po, 15 mg/kg",176.7245 ± 1.83 µg.h^2/ml
same,Cl (drug clearance),"[1]; rat, in vivo, po, 15 mg/kg",5.9268 ± 0.31 mL/h/kg
same,Tmax,"[1]; rat, in vivo, po, 15 mg/kg",6 h
same,Degradation in plasma,[2],no significant degradation
